Where no end group is shown, it is not given here.
T1: FPRL1 (Homo sapiens, UniProt P25090)
T1 sequence (P25090 1-351): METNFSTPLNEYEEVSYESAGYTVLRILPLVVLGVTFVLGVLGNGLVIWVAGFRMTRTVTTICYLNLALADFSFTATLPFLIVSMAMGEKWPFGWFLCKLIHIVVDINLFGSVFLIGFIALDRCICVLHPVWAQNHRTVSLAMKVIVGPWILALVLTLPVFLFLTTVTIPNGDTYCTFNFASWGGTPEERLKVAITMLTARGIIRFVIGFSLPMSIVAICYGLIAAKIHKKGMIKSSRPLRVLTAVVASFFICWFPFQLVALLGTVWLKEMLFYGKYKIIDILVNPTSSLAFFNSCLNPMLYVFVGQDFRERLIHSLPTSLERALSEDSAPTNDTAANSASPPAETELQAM


Legend:
Type in all cases: cell-based
human neutrophils = assay: Calcium mobilization in freshly isolated human neutrophils; conditions: undigested chemokine or peptide (100 nM)
Protocol: Calcium Mobilization Assay. Cells were loaded for 1 hour with 2 μM indo-1/AM dye (Molecular Probes, Eugene, Oreg.) in culture medium, then washed with 10 ml PBS and resuspended at 10^6/ml in HBSS containing 1% FBS. Cytosolic calcium responses were determined using a Photon Technology International (Lawrenceville, N.J.) fluorimeter, with excitation at 350 nm and dual emission at 400 and 490 nm. Alternatively, cells were loaded with 5 μg/ml Fluo-4 AM dye (Molecular Probes, Eugene, Oreg.), then washed and analyzed on a Fluorometric Imaging Plate Reader 384 (FLIPR^384 Molecular Devices, Sunnyvale, Calif.), with 505 nm excitation and 530 nm emission.
(§1) Receptor signaling assay. For individual measurements, cells were loaded for 45 min at room temperature with 2 μM indo-1/AM (Invitrogen, Carlsbad Calif.) in culture medium, then washed with 10 ml PBS and resuspended at 10^6 cells/ml in HBSS containing 0.1% BSA. Cytosolic calcium levels were determined using a Photon Technology International fluorimeter (excitation at 350 nm, ratio of dual emission at 400 and 490 nm). For measuring calcium dose responses, cells were analyzed with a Fluorometric Imaging Plate Reader 384 (FLIPR^384) (Molecular Devices, Sunnyvale, Calif.). Cells were loaded for 1 hr at 37° C. with 5 μM fluo-4 in HBSS with 0.1% BSA, then washed, transferred to black-wall 96-well plates, and subsequently excited at 505 nm with emission recorded at 530 nm with a standard protocol provided by the manufacture. Cells were stimulated with agonists 20 s after the monitoring of fluorescence began. Data were analyzed and plotted in arbitrary units of fluorescence using Prism. To ensure that responses were specific to FPRL1, we utilized a selective small-molecule antagonist of human FPRL1, generated by ChemoCentryx, which was optimized from a high throughput compound library screening approach.

human monocytes = assay: Chemotaxis of human monocytes; conditions: undigested
Protocol: Chemotaxis assay. L1.2-CCR1 transfectants, THP-1 cells, human monocytes and human neutrophils were collected by centrifugation and resuspended in HBSS containing 0.1% BSA. Chemotaxis assays were performed in 96-well ChemoTx® microplates (Neuroprobe, Rockville, Md.) as follows. Chemokines were added to the lower wells (final volume 29 μL), and 20 μL of cell suspension (5×10^6 cells/mL) was added to the polycarbonate filter (3 μm pore size for neutrophils, 5 μm for other 3 cell types). After incubation at 37° C. in the presence of 5% CO2 for 1 hr (neutrophils), 90 min (monocytes) or 2 h (THP-1 and L1.2-CCR1), cells were removed from the upper surface of the filter by scraping. Cells that migrated into the lower chamber were quantified by using the CyQuant cell proliferation assay kit (Molecular Probes, Eugene, Oreg.) and analyzed with a Tecan (Durham, N.C.) fluorimeter (excitation at 480 nm, emission at 530 nm). Data were analyzed and plotted in arbitrary units of fluorescence using Prism (GraphPad Software, San Diego, Calif.).
Chemotaxis assays. L1.2-CCR1 and L1.2-FPRL1 transfectants, monocytes and neutrophils were collected by centrifugation and resuspended in HBSS with 0.1% BSA. The assays were performed in 96-well ChemoTx® microplates (Neuroprobe, Rockville, Md.). Chemokines were diluted in HBSS with 0.1% BSA and added to the lower wells (final volume 29 μL), then 20 μL of cell suspension (5×10^6 cells/mL for monocytes; 2.5×10^6 cells/mL for neutrophils) were added to the polycarbonate filters (5 μm pore size for monocytes and FPRL1 transfectants; 3 μm pore size for neutrophils). After incubation for 90 min (37° C., 100% humidity, 5% CO2), the filters were removed and the cells that migrated into the lower chamber were quantified by using the CyQuant cell proliferation assay kit (Molecular Probes, Oreg.).

FPRL1 = target: T1, FPRL1; assay: Receptor signaling (calcium mobilization) in L1.2-FPRL1 cells; set-up: expressed in transfected cells; conditions: for calcium mobilization in the FPRL1 transfectant: L1.2 cells stably expressing human FPRL1, undigested
Protocol: as §1
Since FPRL1 has been reported to interact with low affinity and/or potency with a spectrum of potential pathogenic ligands of viral, bacterial and endogenous origin, we performed comparative functional analyses to determine the precise functional domain for the SHAAGtide (FIG. 14). SHAAGtides containing N-terminal and C-terminal truncations and extensions were synthesized, and potencies for receptor signaling in L1.2-FPRL1 cells were tested. […] After removal of the N-terminal amino acid (Met) from SHAAGtide, its potency is reduced approximately 10 fold. Removal of the first two N-terminal amino acids (Met-Leu) totally abolished SHAAGtide's activity on FPRL1. Conversely, removal of the C-terminal three amino residues (AAG) from SHAAGtide had no effect on its activity on FPRL1. Removal of the C-terminal six residues (LSHAAG) reduced the peptide's potency only 3-fold. Many other purported naturally-occurring FPRL1 ligands, including serum amyloid A (SAA), beta-amyloid protein 42, lipoxin A4 and the bacterial tripeptide fMLP were tested.

calcium mobilization in the FPRL1 transfectant (FPRL1) | Designation and FPRL1 Activity (FPRL1; SHAAGtide and truncated/other variants) | Molecule | calcium mobilization (human neutrophils) | chemotaxis (human monocytes)
fully effective | sequence; high | MLWRRKIGPQMTLSHAAG [SHAAGtide] | equipotent to CCL23β Δ24 | vigorous chemotaxis
fully effective | – | CCL23β Δ24: truncated form of CCL23β lacking the 24-residue N-terminal domain, beginning with the SHAAGtide insertion (protein, listed as Homo sapiens) MLWRRKIGPQMTLSHAAGFHATSADCCISYTPRSIPCSLLESYFETNSECSKPGVIFLTKKGRRFCANPSDKQVQVCMRMLKLDTRIKTRKN | very robust calcium response | vigorous chemotaxis
